# US11173173B2, “Methods for treating chemoresistant cancer-initiating cells” (UNIVERSITY OF CONNECTICUT, priority 2015, dated 2021)
# Test system: T-ALL blast cells, LSCs and HSPCs of leukemic Pten:β-cat^Act mice
# Experiment: Flow cytometry of BM of treated leukemic mice (blast cells, LSCs, HSPCs)
# Type: in vivo, mouse
# Conditions: 10 days post-treatment
# Experimental: Leukemic mice were treated with vehicle, chemotherapy, [Low]DXR or chemotherapy+[Low]DXR as described in FIG. 3a. a-c, At 10 days post-treatment, BM was analyzed by flow cytometry to determine frequency of blast cells (a), LSCs (b) and HSPCs (c). Shown are representative plots. d, Average frequency±SD of each population from a-c (n≥6 per group). e, Limiting-dilution assays to determine CRU frequency were performed on blast cells and LSCs sorted from chemotherapy treated leukemic mice and on HSPCs sorted from [Low]DXR treated mice. Engraftment 1% blast cells) was determined in NSG recipients at 10-12 weeks post-transplant.
# Whole bone marrow was isolated from uninduced HSC-SCL-Cre^+ Pten^fx/fx βcat^fx(Exon3)/+ (Pten:β-cat^Act) mice and combined with an equal portion of Cre negative bone marrow from a littermate and transplanted into irradiated (10 Gy) B6.SJL-Ptprc^a Pepc^b/BoyJ (Ptprc) recipients.
# Chemotherapy consisted of Nelarabine (Selleck) and Dexamethasone (BioVision) administered daily for 5 days consecutively. 43.4 mg/ml Nelarabine was administered intravenously via the tail vain according to the formula: Body Weight (g)×5=volume to inject (μl), which yielded 217 mg/kg. 2.5 mg/ml Dexamethasone was injected intraperitoneally according to the formula: Body Weight (g)×4=volume to inject (μl), yielding 10 mg/kg. […] [Low]NanoDXR (also referred to as [Low]NanoDoxo throughout) treatment used doxorubicin nanoparticles as described in International Patent Publication WO 2015/054269 (incorporated by reference in its entirety) administered as a single IV injection once per week on day 1 relative to above treatments using 0.8 mg/kg. Maintenance [Low]NanoDXR consisted of once per week injections of 0.4 mg/kg. Groups combining Nelarabine with Doxorubicin used a single injection containing both drugs. All drugs were solubilized in 45% (2-Hydroxypropyl)-β-cyclodextrin (HBC).
# Cells were collected from bone marrow (femur and tibia), spleen, peripheral blood, and thymus. For cell surface phenotyping, a lineage cocktail (Lin) was used including CD3 (for HSPC but not LSC analysis), CD4, CD8, Mac-1, Gr1, B220, IgM, and Ter119 (eBioscience, San Diego, Calif.). Monoclonal antibodies against CD3 (separate fluorophore for LSC analysis), Sca-1, c-Kit, CD45.1, and CD45.2 were also used where indicated. Cell sorting and analysis were performed using an inFlux (BD), MoFlo (Dako, Ft. Collins, Colo.) and/or CyAn ADP (Dako, Ft. Collins, Colo.). Data analysis was performed using FlowJo software (Ashland, Oreg.).
compound,measurement,setting,value
"COc1cccc2c1C(=O)c1c(O)c3c(c(O)c1C2=O)C[C@@](O)(C(=O)CO)C[C@@H]3O[C@H]1C[C@H](N)[C@H](O)[C@H](C)O1 [DXR, doxorubicin]","LSC reduction, free DXR 5 doses of 0.15 μg/g",5 daily injections 0.15 μg/g,ineffective
same,HSPCs in BM vs vehicle,[Low]DXR 0.5 mg/kg daily x5,allowed significant recovery of HSPCs
same,LSCs in BM vs vehicle,[Low]DXR 0.5 mg/kg daily x5,significantly reduced LSCs compared to vehicle
same,blast cells in BM vs vehicle,[Low]DXR 0.5 mg/kg daily x5,did not significantly reduce blast cells
same,"blast cells in BM, [Low]DXR in combination with dexamethasone",[Low]DXR with Dexa.,does not act as a traditional chemotherapeutic
same,"blast cells in BM, clinical equivalent (normal) dose DXR",normal dose DXR (8x higher than [Low]) with Dexa.,acted similar to chemotherapy in their reduction
